According to patent US8389521B2, “Inhibitors of protein kinases” (Ingenium Pharmaceuticals GmbH, priority 2007, dated 2013):

Tests used:
[1] = tested on: Tau phosphorylation at Serin396 in differentiated SH-SY5Y cells; assay: In vitro SH-SY5Y assay using tau phosphorylation; format: cell-based, human; details: RA- and BDNF-differentiated SH-SY5Y cells, 90-120 min incubation, Western Blot or ELISA
Method: The human neuroblastoma cell line SH-SY5Y can be utilized as an in vitro model to investigate CDK5 function and the efficacy of CDK5 specific inhibitors. SH-SY5Y cells express tau protein which harbors various phosphorylation sites known to be phosphorylated by several kinases including CDK5. SH-SY5Y cells can be differentiated into neuron-like cells by exposure to 10 μM all trans-retinoic acid for 3 days and subsequent exposure to 50 ng/ml human recombinant brain-derived neurotrophic factor for 3-5 days, thereby upregulating neuronal markers, including tau protein. In addition CDK5 and p35 protein levels were increased during differentiation. RA-BDNF-differentiated cells can therefore serve as a suitable model for studying tau phosphorylation and to screen potential CDK5 inhibitors (Jämsä et al., 2004. BBRC 319; 993-1000). […]
Concentrations of total tau, pS396 tau and pT231 tau within the cell culture lysates are measured by using commercial ELISA Kits (BioSource: human total tau: KHB0042; human pS396 tau: KHB7031; human pT231 tau: KHB7051) according to the manufacturers instructions or by using Western Blots probing with total and phospho-specific antibodies (antibodies: total tau: Santa Cruz, sc-21796; pS396 tau: Santa Cruz, sc-12414; pT231 tau, AT180: Pierce Endogen, MN1040; pS202 tau: AT8: Pierce Endogen, MN1020). […]

| melting point | Structure (SMILES) | inhibitory effect on Tau phosphorylation at Serin396 [1] |
| --- | --- | --- |
| 213.5 to 215.1 °C | CCOc1ccccc1-c1cc(Nc2ccc(CS(N)(=O)=O)cc2)ncn1 [Compound 6, {4-[6-(2-Ethoxy-phenyl)-pyrimidin-4-ylamino]-phenyl}-methanesulfonamide] | – |
| – | NS(=O)(=O)Cc1ccc(Nc2cc(-c3ccccc3OCc3ccccc3)ncn2)cc1 [Compound 8, {4-[6-(2-Benzyloxy-phenyl)-pyrimidin-4-ylamino]-phenyl}-methanesulfonamide] | significant inhibitory effect |
| 149.2 to 150.8 °C | COCCCNS(=O)(=O)Cc1cccc(Nc2cc(-c3ccccc3OC)ncn2)c1 [Reference Compound 3, C-{3-[6-(2-methoxy-phenyl)-pyrimidin-4-ylamino]-phenyl}-N-(3-methoxy-propyl)-methanesulfonamide] | – |
